Here are results for three molecules from patent US20180363057A1, “METHOD FOR EVALUATING INDIVIDUAL RADIOSENSITIVITY AND THE RISK OF ADVERSE EFFECTS” (COMMISSARIAT A L'ENERGIE ATOMIQUE ET AUX ENERGIES …, priority 2015, published 2018).

Common to all, as to assay type: cell-based, human
The test system of assay [1] is T4EM lymphocytes. As to the kind of experiment: 1,10-phenanthroline induced apoptosis of T4EM lymphocytes (AnnexinV). The settings on record: for Effect on 1,10-phenanthroline induced apoptosis of T4EM lymphocytes: 80 μg/ml 1,10-phenanthroline, 2 hours, 4 μg/ml rh-sTRAIL or rh-sDR5. On the procedure: Cell suspensions at approximately 5×10^5 cells/ml (or at cell densities specified in the results section) in RPM11640/15% FCS, were irradiated at a dose rate of approximately 0.5 Gy/min with a ^137Cs-source (IBL637; Cis-Bio international/Scherring, Saclay, France), where incubated in the presence of indicated concentrations of recombinant human soluble TRAIL (rh-sTRAlL), recombinant human soluble DR5 (rh-sDR5), anti-TRAIL cytotoxicity-blocking antibody (CD253; clone RIK-2), or of 1,10-phenanthroline (stock solution of 200 mM in DMSO). All experiments described were performed with the same batch of heat inactivated FCS, previously tested for compatibility with our experimental procedures. Incubations of 18 hours or less as specified in results section were at 37° C. and 5% CO2.
(§1) Treated cells were collected and washed with AnnexinV buffer (140mM NaCl, 5mM CaCl2, 10 mM HEPES; ph7.4), and stained with 2.5 μl AnnexinV-FITC in combination with fluorochrome-conjugated CD markers in 100 ul for 30 min. […] For CD253 (mTRAIL) quantification, a compact panel designed to limit the need for compensation including AnnexinV, CD253, CD3, CD4, and CD62L was used.
Cells were washed in AnnexinV-buffer and just prior flow cytometry, 50 μL of AnnexinV-buffer containing 0.2 μg/mL Hoechst 33258 (Molecular Probes, Eugene, Oreg.), was added for dead cell exclusion. Samples were analyzed using a three-laser CyAn LX system, (DakoCytomation, Fort Collins, Colo.) or a 5-laser SORP LSRII (Becton Dickinson). […] All fluorescence signals were log-amplified, and stored in listmode. CompBeads (Becton Dickinson) were used to assist in determination of spill-over in every individual experiment (CD3-FITC was used instead of AnnexinV-FITC) and Fluorescence Minus One (FMO) controls were used where needed, in particular for mTRAIL quantifications (SortWare; Becton Dickinson or Flowjo version 9.6.4; Treestar, Ashland, Oreg.). […]
Data was analyzed using Flowio. […] Subsequently, dead cells were excluded on the basis of HO33258 fluorescence. T Lymphocytes were identified on the basis of positive PETxR (CD3) fluorescence. […]

Another assay has as its system TRAIL-receptor DR5. As to the kind of experiment: Expression of proapoptotic TRAIL-receptor DR5 in T4EM lymphocytes. The settings on record: after 1,10-phenanthroline treatment; data not shown. The text has this: All fluorochrome-coupled monoclonal antibodies were used at saturating conditions, as determined by titrations. Anti-human CD antibodies came from Becton Dickinson ImmunoCytometry Systems (CD62L-PE, CD62L-PECy5.1, CD14-PECy5.1, CD-235a-PECy5.1, CD27-PECy5.1, CD4-PECy7, CD19-PECy7, CD45RA-APC, CD8-APCH7), from Beckman Coulter (CD3-PETxR) from Biolegend (CD253/TRAIL-PE, CD62L- BV421, CD3-BV605), or from R&D Systems (CD262/DR5-APC). Recombinant human soluble TRAIL (rh-sTRAIL) and recombinant human soluble DR5 ([…] was from R&D Systems, AnnexinV-FITC from Becton Dickinson, and 1,10-phenanthroline from Sigma-Aldrich.

Another assay deals with mTRAIL. The assay is described as follows: Cell-surface mTRAIL (CD253) level by flow cytometry on T4EM lymphocytes. The settings on record: 80 μg/ml.
Description: TRAIL can be soluble (sTRAIL) or membrane-bound (mTRAIL)(Schneider et al., 1998, J. Exp. Med. 187:1205-1213; Wajant et al., 2001, Oncogene. 20:4101-4106). Under the experimental conditions used for radiation-induced apoptosis of T4EM lymphocytes, the levels of sTRAIL in media were below sandwich ELISA detection level (<20 pg/ml; data not shown). The inventors thus focused their study on mTRAIL. Using a monoclonal antibody panel comprising CD253, they measured the level of cell-surface mTRAIL expression by flow cytometry. A four-fold higher expression of mTRAIL was found on T4EM lymphocytes of “sensitive” compared to “resistant” samples (FIG. 3 A). […]
as §1
Cells were washed in AnnexinV-buffer and just prior flow cytometry, 50 μL of AnnexinV-buffer containing 0.2 μg/mL Hoechst 33258 (Molecular Probes, Eugene, Oreg.), was added for dead cell exclusion. Samples were analyzed using a three-laser CyAn LX system, (DakoCytomation, Fort Collins, Colo.) or a 5-laser SORP LSRII (Becton Dickinson). […]

The test system of assay [2] is T4EM lymphocytes. As to the kind of experiment: Radiation-induced apoptosis of T4EM lymphocytes (AnnexinV labeling, flow cytometry). The settings on record: 0.4 μg/ml rh-sTRAIL, 18 hours after irradiation at 0, 0.5, 1, 2 Gy.
Description: The sensitivity of subpopulations of human T-lymphocytes to ionizing radiation-induced apoptosis was quantified eighteen hours after irradiation (0-2 Gy) of PBMC samples of healthy blood donors using the previously defined radio sensitivity assay based on immunophenotyping and AnnexinV-labeling. […] Exponential regression coefficients of dose-survival curves were used to classify human PBMC samples according to the radio sensitivity of their T4EM lymphocyte subpopulation, and “sensitive” and “resistant” samples were defined at the two ends of the T4EM radio sensitivity phenotype distribution. […]
as §1
Cells were washed in AnnexinV-buffer and just prior flow cytometry, 50 μL of AnnexinV-buffer containing 0.2 μg/mL Hoechst 33258 (Molecular Probes, Eugene, Oreg.), was added for dead cell exclusion. Samples were analyzed using a three-laser CyAn LX system, (DakoCytomation, Fort Collins, Colo.) or a 5-laser SORP LSRII (Becton Dickinson). […] All fluorescence signals were log-amplified, and stored in listmode. […]
On the technique in general: In flow cytometry, cells or beads pass a laser one at a time.

Regarding `c1cnc2c(c1)ccc1cccnc12` [1,10-phenanthroline], the “Induction of apoptosis in T4EM lymphocytes” value with T4EM lymphocytes [1] (80 μg/ml, two hours, no irradiation) is “rapid induction of apoptosis”. For the same molecule, the “Expression of proapoptotic TRAIL-receptor DR5” value with TRAIL-receptor DR5 is recorded as “increased expression”. Further, the “mTRAIL level in treated "resistant" samples versus untreated "sensitive" samples” value in the assay on mTRAIL (2 hours) is recorded as “always remained lower”. The “mTRAIL expression in T4EM lymphocytes” value with mTRAIL (two hours after addition, "resistant" and "sensitive" samples) is on record as “increase of mTRAIL expression”.
“rh-sDR5: recombinant human soluble DR5 receptor”: the “Effect on 1,10-phenanthroline induced apoptosis of T4EM lymphocytes” value with T4EM lymphocytes [1] is “inhibited”.

B1: rh-sTRAIL: recombinant human soluble TRAIL, from R&D Systems (protein, UniProt P50591 39-281, looked up)
extracellular domain: TNELKQMQDKYSKSGIACFLKEDDSYWDPNDEESMNSPCWQVKWQLRQLVRKMILRTSEETISTVQEKQQNISPLVRERGPQRVAAHITGTRGRSNTLSSPNSKNEKALGRKINSWESSRSGHSFLSNLHLRNGELVIHEKGFYYIYSQTYFRFQEEIKENTKNDKQMVQYIYKYTSYPDPILLMKSARNSCWSKDAEYGLYSIYQGGIFELKENDRIFVSVTNEHLIDMDHEASFFGAFLVG
modifications: extracellular domain
notes: recombinant human soluble TRAIL, from R&D Systems
Regarding B1, the “Effect on 1,10-phenanthroline induced apoptosis of T4EM lymphocytes” value in the assay on T4EM lymphocytes [1] is “inhibited”. For the same molecule, in the assay on T4EM lymphocytes [2], the “Effect on autocrine pro-apoptotic mode of action of mTRAIL in irradiated T4EM lymphocytes” value was “abolished”.
